Data set [1] has as its target 5-hydroxytryptamine receptor 2B (Homo sapiens, UniProt P41595).
Description: Inhibition of human 5-HT2B receptor assessed as inhibition constant by microbeta scintillation counting method
Data set [2] concerns the target Kappa-type opioid receptor (Homo sapiens, UniProt P41145). Kind of data set: Inhibition of human KOR assessed as inhibition constant by microbeta scintillation counting method.
Data set [3] in a line: Cytotoxicity against human MRC5 cells assessed as reduction in cell viability measured after 3 days by resazurin dye based fluorimetric analysis. For orientation: Resazurin is reduced to fluorescent resorufin, in cell work by metabolically active cells.

Sequence of 5-hydroxytryptamine receptor 2B (P41595 whole entry): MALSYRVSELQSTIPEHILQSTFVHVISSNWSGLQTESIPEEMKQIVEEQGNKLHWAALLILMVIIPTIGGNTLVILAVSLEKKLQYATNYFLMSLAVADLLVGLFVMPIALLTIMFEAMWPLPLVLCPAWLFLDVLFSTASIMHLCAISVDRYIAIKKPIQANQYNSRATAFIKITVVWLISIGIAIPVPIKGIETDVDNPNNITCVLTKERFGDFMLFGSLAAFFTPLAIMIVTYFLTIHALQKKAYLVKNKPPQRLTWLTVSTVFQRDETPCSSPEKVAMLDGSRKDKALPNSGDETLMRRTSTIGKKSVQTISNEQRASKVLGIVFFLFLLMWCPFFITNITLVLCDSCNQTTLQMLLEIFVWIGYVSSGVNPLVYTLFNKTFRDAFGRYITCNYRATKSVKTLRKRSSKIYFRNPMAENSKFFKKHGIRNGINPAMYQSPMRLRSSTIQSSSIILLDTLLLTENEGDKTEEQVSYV
Sequence of Kappa-type opioid receptor (P41145 whole entry): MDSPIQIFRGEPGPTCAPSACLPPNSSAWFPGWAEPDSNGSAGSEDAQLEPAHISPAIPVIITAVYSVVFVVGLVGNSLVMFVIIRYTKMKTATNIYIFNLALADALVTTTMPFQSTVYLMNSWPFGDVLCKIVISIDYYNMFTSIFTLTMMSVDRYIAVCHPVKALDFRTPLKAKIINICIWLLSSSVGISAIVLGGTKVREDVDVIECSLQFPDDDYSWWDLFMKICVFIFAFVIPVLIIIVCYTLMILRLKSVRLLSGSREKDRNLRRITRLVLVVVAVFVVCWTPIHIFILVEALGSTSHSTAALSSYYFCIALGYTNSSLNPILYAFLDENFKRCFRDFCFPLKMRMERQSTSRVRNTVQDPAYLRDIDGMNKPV

In general, Ki refers to a measure of affinity in units of concentration, obtained from inhibition or displacement. In the case of `C[C@@H](Nc1ncnc2c1c(C(F)(F)F)cn2[C@@H]1O[C@H](CO)[C@@H](O)[C@H]1O)c1ccccc1`, the Ki in data set [1] was 710 nM.
`OC[C@H]1O[C@@H](n2cc(C(F)(F)F)c3c(NCc4ccc(Cl)cc4)ncnc32)[C@H](O)[C@@H]1O` came in with a Ki in data set [1] of 830 nM.
In the case of `C[C@H](Nc1ncnc2c1c(C(F)(F)F)cn2[C@@H]1O[C@H](CO)[C@@H](O)[C@H]1O)c1ccccc1`, the Ki in data set [2] turned out to be 1900 nM.
By CC50 is commonly meant the concentration at which the toxic effect on the cells reaches its halfway point. Take `OC[C@H]1O[C@@H](n2cc(C(F)(F)F)c3c(NCc4cccc(Cl)c4)ncnc32)[C@H](O)[C@@H]1O`: in data set [3], the CC50 at 72 h was > 64000 nM. The same compound yielded an inhibition constant Ki in data set [1] of 620 nM.
In the case of `OC[C@H]1O[C@@H](n2cc(C(F)(F)F)c3c(NCc4ccccc4)ncnc32)[C@H](O)[C@@H]1O`, the Ki is 1800 nM in data set [2] and 500 nM in data set [1].
As for `OC[C@H]1O[C@@H](n2cc(C(F)(F)F)c3c(NCc4ccccc4F)ncnc32)[C@H](O)[C@@H]1O`, the CC50 at 72 h in data set [3] was > 64000 nM. The same compound gave a Ki in data set [1] of 1200 nM.
With `OC[C@H]1O[C@@H](n2cc(C(F)(F)F)c3c(NCc4ccccc4Cl)ncnc32)[C@H](O)[C@@H]1O`, the Ki in data set [1] was determined as 550 nM.
